Experimental data published in patent publication US20230236206A1, “PREDICTING A SEPSIS CONDITION” (PHARM-ANALYT LABOR GMBH, priority 2020, published 2023).

Assay: Hydrophilicity of BM1
Assay type: physicochemical

SMILES: C[C@@H](O)[C@H](NC(=O)Nc1ncnc2c1ncn2[C@@H]1O[C@H](CO)C(O)C1O)C(=O)O (stereo partly drawn) [BM1, N6-Carbamoylthreonyl-D-adenosine]
- Hydrophilicity: very hydrophilic
